# Patent publication US7205307B2, “Pyrimidines as novel openers of potassium ion channels” (Icagen, Inc., priority 2002, dated 2007)
# Test system: voltage gated K+ channels
# Assay: test assay chosen for cells expressing voltage gated K+ channels (opening of voltage-gated potassium channels)
# Format: cell-based
# Conditions: relative potency
# Protocol: Utilizing screening assays such as described above, compounds of the invention were tested for their ability to open voltage-gated potassium channels. The results of these assays are set forth in Table 1 in which the data are presented in terms of relative potency of the compounds tested to one another.
# This example illustrates screening protocols for evaluating putative potassium channel agonists for the ability to open voltage-gated potassium channels.
# NG108-15 cells, a mouse neuroblastoma, rat glioma hybrid cell line, functionally express M-currents (Robbins et al., J. Physiol. 451: 159–85 (1992). NG108-15 M-currents are likely comprised, at least in part, of KCNQ2, KCNQ3 and KCNQ5, since these genes are reportedly robustly expressed in differentiated NG108-15 cells (Selyanko et al., J. Neurosci. 19(18): 7742–56 (1999); Schroeder et al., J. Biol. Chem. 275(31): 24089–95 (2000)) and KCNQ3 dominant- negative constructs reduce M-current density in these cells (Selyanko et al., J. Neurosci. 22(5): RC212 (2002).
# NG108–15 are maintained in DMEM (high glucose) supplemented with 10% fetal bovine serum, 0.05 mM pyridoxine, 0.1 mM hypoxanthine, 400 nM aminopterin, […] thymidine, 50 μgml^−1 gentamycin and 10 mM HEPES, in an incubator at 37° C. with a humidified atmosphere of 5% CO2. Cells are plated in 96 well plates and are differentiated by addition of 10 μM PGE1 and 50 μM isomethylbutylxanthine to the growth media prior to study.
# Differentiated NG108–15 cells are loaded with voltage-sensitive dye by incubation in Earls Balanced Salt Solution (EBSS) containing […] DiBAC for 1 h. Following loading, drug solution containing […] DiBAC is added to each well. Changes in fluorescence are measured every 30 s for 25 min. The maximum change in fluorescence is measured and can be expressed as a percentage of the maximum response obtained in the presence of a positive control agent.
# Alternatively, cells expressing voltage-gated K^+ channels, such as KCNQ2-like channels can be loaded with ^86Rb^+ by culture in media containing ^86RbCl. Following loading, culture media is removed and the cells are washed in EBSS to remove residual traces of ^86Rb^+. Cells are preincubated with drug (0.01–30 μM in EBSS) and then ^86Rb^+ efflux is stimulated by exposing cells to EBSS solution supplemented with a sub-maximal concentration of KCl (generally 7–20 mM) in the continued presence of drug. After a suitable efflux period, the EBSS/KCl solution is removed from the cells and the ^86Rb^+ content can be determined by Cherenkov counting (Wallac Trilux). Cells are then lysed with a SDS solution and the ^86Rb^+ content of the lysate can be determined. Percent ^86Rb^+ efflux is calculated according to: (^86Rb^+ content in EBSS/(^86Rb^+ content in EBSS+^86Rb^+ content of the lysate))*100
# Efflux is normalized to the maximal ^86Rb^+ efflux (i.e., that which can be induced by a high concentration of KCl, generally 30–135 mM).
row,SMILES,EC50 [nM]
1,"O=C(Nc1cnc(Cl)nc1)c1cccc(C(F)(F)F)c1 [Compound 3, N-(2-chloro-pyrimidin-5-yl)-3-trifluoromethyl-benzamide]",1000 to 10000
2,"Cc1ncc(NC(=O)c2ccc(F)c(F)c2)cn1 [Compound 8, 3,4-difluoro-N-(2-methyl-pyrimidin-5-yl)-benzamide]",1000 to 10000
3,"O=C(Nc1cnc(Cl)nc1)c1ccc(Cl)c(F)c1 [Compound 44, 4-Chloro-N-(2-chloro-pyrimidin-5-yl)-3-fluoro-benzamide]",< 500
4,"O=C(Nc1cnc(Cl)nc1)c1cccc(Cl)c1 [Compound 5, 3-Chloro-N-(2-chloro-pyrimidin-5-yl)-benzamide]",1000 to 10000
5,"O=C(Nc1cnc(Cl)nc1)c1ccc(Cl)s1 [Compound 20, 5-Chloro-thiophene-2-carboxylic acid (2-chloro-pyrimidin-5-yl)-amide]",500 to 1000
6,"O=C(Nc1cnc(Cl)nc1)c1cccc(F)c1 [Compound 9, N-(2-chloro-pyrimidin-5-yl)-3-fluoro-benzamide]",1000 to 10000

# The remaining lines, values ahead:
row,EC50 [nM],SMILES
1,1000 to 10000,"CC(C)S(=O)(=O)c1ccc(C(=O)Nc2cnc(Cl)nc2)cc1F [Compound 91, N-(5-amino-2-chloro-pyrimidine)-3-fluoro-4-(propane-2-sulfonyl)-benzamide]"
2,500 to 1000,"O=C(Nc1cnc(Cl)nc1)c1ccc(F)c(F)c1 [Compound 4, N-(2-Chloro-pyrimidin-5-yl)-3,4-difluoro-benzamide]"
3,500 to 1000,"Cc1ccc(C(=O)Nc2cnc(Cl)nc2)cc1F [Compound 90, N-(2-Chloro-pyrimidin-5-yl)-3-fluoro-4-methyl-benzamide]"
